Common to all, as to format: in vivo
For test [1], the system named is Alopecurus myosuroides (ALOMY). The test can be described thus: Pre-emergence herbicidal activity, glasshouse pot test. Conditions: Alopecurus myosuroides, 312 h, Rate 250 g/ha, evaluated after 13 days, read-out: Pre-emergence activity ALOMY (100=total damage to plant; 0=no damage to plant). The essentials:
(§1)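 Plants in standard-soil pots, glasshouse at 24/16° C, 14 h photoperiod, 65% humidity. Aqueous spray (acetone/water 50:50 formulation, 0.5% Tween 20) applied pre-emergence at day 1 or post-emergence at day 8. Percent damage recorded after 13 days.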

The subject of test [2] is Avena fatua (AVEFA). Described as above. The following applies: Avena fatua, 312 h, Rate 250 g/ha, evaluated after 13 days, read-out: Pre-emergence activity AVEFA (100=total damage to plant; 0=no damage to plant). Summed up: as §1
Test [3] relates to Echinochloa crus-galli (ECHCG). The test is described as above. Conditions: Echinochloa crus-galli, 312 h, Rate 250 g/ha, evaluated after 13 days, read-out: Pre-emergence activity ECHCG (100=total damage to plant; 0=no damage to plant). Summed up: as §1
The test system of test [4] is Lolium perenne (LOLPE). The description is as above. Conditions: Lolium perenne, 312 h, Rate 250 g/ha, evaluated after 13 days, read-out: Pre-emergence activity LOLPE (100=total damage to plant; 0=no damage to plant). Summed up: as §1
Test [5] concerns Alopecurus myosuroides (ALOMY). The experiment in a line: Post-emergence herbicidal activity, glasshouse pot test. Conditions: Alopecurus myosuroides, 312 h, rate 250 g/ha, evaluated after 13 days, read-out: Post-emergence activity ALOMY (100=total damage to plant; 0=no damage to plant). Summed up: as §1
For test [6], the system named is Avena fatua (AVEFA). The description is as above. The following applies: Avena fatua, 312 h, rate 250 g/ha, evaluated after 13 days, read-out: Post-emergence activity AVEFA (100=total damage to plant; 0=no damage to plant). Summed up:
as §1

In test [7] the test system is Echinochloa crus-galli (ECHCG). The description is as above. Conditions: Echinochloa crus-galli, 312 h, rate 250 g/ha, evaluated after 13 days, read-out: Post-emergence activity ECHCG (100=total damage to plant; 0=no damage to plant). Summed up:
as §1

In test [8] the test system is Lolium perenne (LOLPE). The test is described as above. The following applies: Lolium perenne, 312 h, rate 250 g/ha, evaluated after 13 days, read-out: Post-emergence activity LOLPE (100=total damage to plant; 0=no damage to plant). Summed up:
as §1

As to `CCc1ccc(Oc2ccc(Cl)cc2Cl)cc1C1=C(O)[C@H]2CC[C@H](C2)C1=O` (single isomer, unassigned) [Example A-90], the pest or weed control at 250 g/ha in test [1] (pre-emergence spray) came to 70%; in the test on Avena fatua (AVEFA) [2] (pre-emergence spray), 70%; in test [3] (pre-emergence spray), 100%; with Lolium perenne (LOLPE) [4] (pre-emergence spray) it was 90%; in test [5] (glasshouse) it was 60%; in the test on Avena fatua (AVEFA) [6] (glasshouse), 30%. In addition, the pest or weed control at 250 g/ha in test [7] (glasshouse) turned out to be 90%; with Lolium perenne (LOLPE) [8] (glasshouse) it was 80%.
Consider `CCc1ccc(Oc2nc(F)c(Cl)c(OC)c2Cl)cc1C1=C(O)C(C)(C)OC(C)(C)C1=O` [Example A-222], for which the pest or weed control at 250 g/ha turned out to be 0% in test [1] (pre-emergence spray); 0% in the test with Avena fatua (AVEFA) [2] (pre-emergence spray); 0% in test [3] (pre-emergence spray); 0% with Lolium perenne (LOLPE) [4] (pre-emergence spray); 20% in test [5] (glasshouse); 20% in the test with Avena fatua (AVEFA) [6] (glasshouse). Further, the pest or weed control at 250 g/ha (in test [7] (glasshouse); with Lolium perenne (LOLPE) [8] (glasshouse)) was 30% throughout.
As for `CCc1ccc(Oc2ccc([N+](=O)[O-])c(Cl)c2)cc1C1=C(O)C(C)(C)OC(C)(C)C1=O` [Example A-67], the pest or weed control at 250 g/ha in test [1] (pre-emergence spray) came out at 90%; in the test on Avena fatua (AVEFA) [2] (pre-emergence spray) it was 90%; in test [3] (pre-emergence spray) it was 100%; in the test with Lolium perenne (LOLPE) [4] (pre-emergence spray) it was 100%; in test [5] (glasshouse) it was 100%; with Avena fatua (AVEFA) [6] (glasshouse) it was 80%. The results for the pest or weed control at 250 g/ha (in test [7] (glasshouse); in the test with Lolium perenne (LOLPE) [8] (glasshouse)) were 100% and 90%, respectively.
Consider `CC1(C)OC(C)(C)C(O)=C(c2cc(Oc3ccc(Cl)cc3Cl)ccc2C2CC2)C1=O` [Example A-262], for which the pest or weed control at 250 g/ha in test [1] (pre-emergence spray) is 30%; in the test on Avena fatua (AVEFA) [2] (pre-emergence spray), 0%; in test [3] (pre-emergence spray), 70%; with Lolium perenne (LOLPE) [4] (pre-emergence spray) it was 70%; in test [5] (glasshouse), 80%; in the test on Avena fatua (AVEFA) [6] (glasshouse) it was 50%. The pest or weed control at 250 g/ha in test [7] (glasshouse) stood at 90%; in the test with Lolium perenne (LOLPE) [8] (glasshouse), 60%.
With `CCc1ccc(Oc2cnc3ccc(Br)cc3n2)cc1C1=C(O)CC(C)(C)CC1=O` [Example A-289], the pest or weed control at 250 g/ha was 60% in test [1] (pre-emergence spray); 40% in the test on Avena fatua (AVEFA) [2] (pre-emergence spray); 100% in test [3] (pre-emergence spray); 90% with Lolium perenne (LOLPE) [4] (pre-emergence spray); 100% in test [5] (glasshouse); 100% in the test with Avena fatua (AVEFA) [6] (glasshouse). Moreover, the pest or weed control at 250 g/ha (in test [7] (glasshouse); in the test with Lolium perenne (LOLPE) [8] (glasshouse)) was 100% in each case.
In the case of `CCc1ccc(Oc2ccc(C#N)cc2Cl)cc1C1=C(O)C(C)(C)OC(C)(C)C1=O` [Example A-73], the pest or weed control at 250 g/ha in test [1] (pre-emergence spray) came out at 90%; in the test with Avena fatua (AVEFA) [2] (pre-emergence spray), 80%; in test [3] (pre-emergence spray) it was 100%; with Lolium perenne (LOLPE) [4] (pre-emergence spray), 80%; in test [5] (glasshouse) it was 90%; with Avena fatua (AVEFA) [6] (glasshouse), 40%. Further, the pest or weed control at 250 g/ha in test [7] (glasshouse) was determined as 100%; with Lolium perenne (LOLPE) [8] (glasshouse) it was 70%.
As to `CCc1ccc(Oc2ccc(Br)cc2C)cc1C1=C(O)C(C)(C)OC(C)(C)C1=O` [Example A-12], the pest or weed control at 250 g/ha amounted to 0% in test [1] (pre-emergence spray); 0% with Avena fatua (AVEFA) [2] (pre-emergence spray); 0% in test [3] (pre-emergence spray); 0% in the test on Lolium perenne (LOLPE) [4] (pre-emergence spray); 20% in test [5] (glasshouse); 0% in the test with Avena fatua (AVEFA) [6] (glasshouse). Further, the pest or weed control at 250 g/ha in test [7] (glasshouse) was 70%; in the test with Lolium perenne (LOLPE) [8] (glasshouse), 50%.
On to `CCc1ccc(Oc2ccc([N+](=O)[O-])c(Cl)c2)cc1C1=C(O)[C@@H]2CC[C@](C)(C1=O)C2(C)C` [Example A-316], for which the pest or weed control at 250 g/ha in test [1] (pre-emergence spray) was 70%; in the test with Avena fatua (AVEFA) [2] (pre-emergence spray), 60%; in test [3] (pre-emergence spray), 100%; in the test on Lolium perenne (LOLPE) [4] (pre-emergence spray), 100%; in test [5] (glasshouse) it was 50%; in the test on Avena fatua (AVEFA) [6] (glasshouse) it was 80%. The pest or weed control at 250 g/ha in test [7] (glasshouse) came to 100%; in the test on Lolium perenne (LOLPE) [8] (glasshouse), 40%.
Regarding `CC1(C)OC(C)(C)C(O)=C(c2cc(Oc3ccc(OC(F)(F)F)cc3)ccc2C2CC2)C1=O` [Example A-356], the pest or weed control at 250 g/ha in test [1] (pre-emergence) was 90%; in the test on Avena fatua (AVEFA) [2] (pre-emergence), 70%; in test [3] (pre-emergence) it was 100%; in the test on Lolium perenne (LOLPE) [4] (pre-emergence), 100%; in test [5], 100%; with Avena fatua (AVEFA) [6], 100%. The pest or weed control at 250 g/ha (in test [7]; with Lolium perenne (LOLPE) [8]) was 100% each time.
As for `CCc1ccc(Oc2ccc(Cl)cc2Cl)cc1C1=C(O)[C@@H]2CC[C@](C)(C1=O)C2(C)C` (single isomer, unassigned) [Example A-94], the pest or weed control at 250 g/ha in test [1] (pre-emergence spray) is 40%; in the test on Avena fatua (AVEFA) [2] (pre-emergence spray), 20%; in test [3] (pre-emergence spray), 90%; with Lolium perenne (LOLPE) [4] (pre-emergence spray) it was 100%; in test [5] (glasshouse), 10%; in the test on Avena fatua (AVEFA) [6] (glasshouse), 0%. In addition, the pest or weed control at 250 g/ha in test [7] (glasshouse) turned out to be 40%; in the test with Lolium perenne (LOLPE) [8] (glasshouse), 20%.
As for `CCc1ccc(Oc2nc(Cl)c(Cl)cc2Cl)cc1C1=C(O)C(C)(C)OC(C)(C)C1=O` [Example A-142], the pest or weed control at 250 g/ha in test [1] (pre-emergence spray) stood at 20%; in the test with Avena fatua (AVEFA) [2] (pre-emergence spray) it was 0%; in test [3] (pre-emergence spray), 40%; in the test on Lolium perenne (LOLPE) [4] (pre-emergence spray), 10%; in test [5] (glasshouse), 20%; with Avena fatua (AVEFA) [6] (glasshouse) it was 20%. In addition, the pest or weed control at 250 g/ha in test [7] (glasshouse) worked out at 70%; in the test with Lolium perenne (LOLPE) [8] (glasshouse), 10%.
Turning to `CCc1ccc(Oc2ccc(C(F)(F)F)cc2Cl)cc1C1=C(O)[C@@H]2CC[C@](C)(C1=O)C2(C)C` [Example A-314], the pest or weed control at 250 g/ha in test [1] (pre-emergence spray) stood at 30%; in the test on Avena fatua (AVEFA) [2] (pre-emergence spray) it was 20%; in test [3] (pre-emergence spray), 100%; in the test on Lolium perenne (LOLPE) [4] (pre-emergence spray) it was 100%; in test [5] (glasshouse), 40%; in the test with Avena fatua (AVEFA) [6] (glasshouse) it was 70%. Also, the pest or weed control at 250 g/ha in test [7] (glasshouse) amounted to 100%; in the test on Lolium perenne (LOLPE) [8] (glasshouse), 70%.
For `CCc1ccc(Oc2ccc([N+](=O)[O-])cn2)cc1C1=C(O)C(C)(C)OC(C)(C)C1=O` [Example A-149], the pest or weed control at 250 g/ha in test [1] (pre-emergence spray) is 10%; in the test with Avena fatua (AVEFA) [2] (pre-emergence spray) it was 10%; in test [3] (pre-emergence spray), 60%; in the test on Lolium perenne (LOLPE) [4] (pre-emergence spray) it was 20%; in test [5] (glasshouse) it was 10%; in the test with Avena fatua (AVEFA) [6] (glasshouse), 30%. For the same compound, the pest or weed control at 250 g/ha is 50% in test [7] (glasshouse) and 30% in the test with Lolium perenne (LOLPE) [8] (glasshouse).
With `CCc1ccc(Oc2ccc(C(F)(F)F)c(Cl)c2)cc1C1=C(O)CC2(CCOCC2)CC1=O` [Example A-278], the pest or weed control at 250 g/ha turned out to be 60% in test [1] (pre-emergence spray); 70% in the test on Avena fatua (AVEFA) [2] (pre-emergence spray); 0% in test [3] (pre-emergence spray); 70% with Lolium perenne (LOLPE) [4] (pre-emergence spray); 100% in test [5] (glasshouse); 100% with Avena fatua (AVEFA) [6] (glasshouse). For the same compound, the pest or weed control at 250 g/ha (in test [7] (glasshouse); in the test with Lolium perenne (LOLPE) [8] (glasshouse)) was 100% throughout.

(Values after patent publication US8865623B2, “Herbicidally active cyclic diones and derivatives thereof, processes for their preparation, compositions, and method of controlling weeds” (Syngenta Limited, priority 2009, dated 2014).)
